Reference: the NIST ThermoML archive (doi:10.1016/j.fluid.2016.02.009)

Conditions: Liquid, Vibrating tube method

CC(C)CCOCCC(C)C [di-(3-methylbutyl) ether]
Conditions	mass density [kg/m3]
283.15 K, 100 kPa	782.76
283.15 K, 5000 kPa	786.88
283.15 K, 10000 kPa	790.71
283.15 K, 15000 kPa	794.36
283.15 K, 20000 kPa	797.85
283.15 K, 25000 kPa	801.22
283.15 K, 30000 kPa	804.45
283.15 K, 35000 kPa	807.58
283.15 K, 40000 kPa	810.61
283.15 K, 45000 kPa	813.52
283.15 K, 50000 kPa	816.37
283.15 K, 55000 kPa	819.14
283.15 K, 60000 kPa	821.82
283.15 K, 65000 kPa	824.44
288.15 K, 100 kPa	778.71
288.15 K, 5000 kPa	782.95
288.15 K, 10000 kPa	786.89
288.15 K, 15000 kPa	790.64
288.15 K, 20000 kPa	794.22
288.15 K, 25000 kPa	797.65
288.15 K, 30000 kPa	800.95
288.15 K, 35000 kPa	804.15
288.15 K, 40000 kPa	807.23
288.15 K, 45000 kPa	810.19
288.15 K, 50000 kPa	813.09
288.15 K, 55000 kPa	815.91
288.15 K, 60000 kPa	818.64
288.15 K, 65000 kPa	821.33
293.15 K, 100 kPa	774.66
293.15 K, 5000 kPa	779.03
293.15 K, 10000 kPa	783.04
293.15 K, 15000 kPa	786.89
293.15 K, 20000 kPa	790.55
293.15 K, 25000 kPa	794.08
293.15 K, 30000 kPa	797.46
293.15 K, 35000 kPa	800.71
293.15 K, 40000 kPa	803.86
293.15 K, 45000 kPa	806.9
293.15 K, 50000 kPa	809.84
293.15 K, 55000 kPa	812.71
293.15 K, 60000 kPa	815.48
293.15 K, 65000 kPa	818.18
298.15 K, 100 kPa	770.6
298.15 K, 5000 kPa	775.09
298.15 K, 10000 kPa	779.24
298.15 K, 15000 kPa	783.18
298.15 K, 20000 kPa	786.94
298.15 K, 25000 kPa	790.54
298.15 K, 30000 kPa	793.99
298.15 K, 35000 kPa	797.31
298.15 K, 40000 kPa	800.51
298.15 K, 45000 kPa	803.61
298.15 K, 50000 kPa	806.62
298.15 K, 55000 kPa	809.51
298.15 K, 60000 kPa	812.33
298.15 K, 65000 kPa	815.07
303.15 K, 100 kPa	766.54
303.15 K, 5000 kPa	771.15
303.15 K, 10000 kPa	775.41
303.15 K, 15000 kPa	779.46
303.15 K, 20000 kPa	783.3
303.15 K, 25000 kPa	786.98
303.15 K, 30000 kPa	790.53
303.15 K, 35000 kPa	793.91
303.15 K, 40000 kPa	797.19
303.15 K, 45000 kPa	800.34
303.15 K, 50000 kPa	803.4
303.15 K, 55000 kPa	806.36
303.15 K, 60000 kPa	809.23
303.15 K, 65000 kPa	812.01
308.15 K, 100 kPa	762.46
308.15 K, 5000 kPa	767.21
308.15 K, 10000 kPa	771.57
308.15 K, 15000 kPa	775.74
308.15 K, 20000 kPa	779.67
308.15 K, 25000 kPa	783.45
308.15 K, 30000 kPa	787.05
308.15 K, 35000 kPa	790.52
308.15 K, 40000 kPa	793.86
308.15 K, 45000 kPa	797.07
308.15 K, 50000 kPa	800.19
308.15 K, 55000 kPa	803.2
308.15 K, 60000 kPa	806.11
308.15 K, 65000 kPa	808.94
313.15 K, 100 kPa	758.37
313.15 K, 5000 kPa	763.24
313.15 K, 10000 kPa	767.74
313.15 K, 15000 kPa	772.01
313.15 K, 20000 kPa	776.05
313.15 K, 25000 kPa	779.9
313.15 K, 30000 kPa	783.59
313.15 K, 35000 kPa	787.12
313.15 K, 40000 kPa	790.53
313.15 K, 45000 kPa	793.81
313.15 K, 50000 kPa	796.97
313.15 K, 55000 kPa	800.03
313.15 K, 60000 kPa	803
313.15 K, 65000 kPa	805.88
318.15 K, 100 kPa	754.27
318.15 K, 5000 kPa	759.27
318.15 K, 10000 kPa	763.91
318.15 K, 15000 kPa	768.28
318.15 K, 20000 kPa	772.42
318.15 K, 25000 kPa	776.38
318.15 K, 30000 kPa	780.14
318.15 K, 35000 kPa	783.75
318.15 K, 40000 kPa	787.22
318.15 K, 45000 kPa	790.57
318.15 K, 50000 kPa	793.81
318.15 K, 55000 kPa	796.91
318.15 K, 60000 kPa	799.93
318.15 K, 65000 kPa	802.85
323.15 K, 100 kPa	750.16
323.15 K, 5000 kPa	755.32
323.15 K, 10000 kPa	760.1
323.15 K, 15000 kPa	764.59
323.15 K, 20000 kPa	768.84
323.15 K, 25000 kPa	772.87
323.15 K, 30000 kPa	776.74
323.15 K, 35000 kPa	780.43
323.15 K, 40000 kPa	783.97
323.15 K, 45000 kPa	787.37
323.15 K, 50000 kPa	790.66
323.15 K, 55000 kPa	793.83
323.15 K, 60000 kPa	796.89
323.15 K, 65000 kPa	799.86
328.15 K, 100 kPa	746.03
328.15 K, 5000 kPa	751.35
328.15 K, 10000 kPa	756.23
328.15 K, 15000 kPa	760.85
328.15 K, 20000 kPa	765.22
328.15 K, 25000 kPa	769.33
328.15 K, 30000 kPa	773.28
328.15 K, 35000 kPa	777.06
328.15 K, 40000 kPa	780.66
328.15 K, 45000 kPa	784.15
328.15 K, 50000 kPa	787.49
328.15 K, 55000 kPa	790.7
328.15 K, 60000 kPa	793.83
328.15 K, 65000 kPa	796.84
333.15 K, 100 kPa	741.88
333.15 K, 5000 kPa	747.34
333.15 K, 10000 kPa	752.39
333.15 K, 15000 kPa	757.12
333.15 K, 20000 kPa	761.58
333.15 K, 25000 kPa	765.79
333.15 K, 30000 kPa	769.84
333.15 K, 35000 kPa	773.7
333.15 K, 40000 kPa	777.39
333.15 K, 45000 kPa	780.93
333.15 K, 50000 kPa	784.33
333.15 K, 55000 kPa	787.59
333.15 K, 60000 kPa	790.76
333.15 K, 65000 kPa	793.83
